According to ChEMBL document CHEMBL4049405, “Investigation on cellular uptake and pharmacodynamics of DOCK2-inhibitory peptides conjugated with cell-penetrating peptides” (Bioorg Med Chem, 2017):
Positions of bridges follow the written chain, without caps; N, C: chain ends. Non-standard residues stand in square brackets, D forms with d. Residues, ends and D or L forms follow the SMILES beside them. *: point of attachment. X1 = O=C(OCCCS*)Oc1ccc2nc(C3=N[C@@H](C(=O)O)CS3)sc2c1; X2 = CC(=O)[C@H]1CSC(c2nc3ccc(OC(=O)OCCCS*)cc3s2)=N1; Mpa = O=C(O)CCS

How the values were obtained:
[1] = Cytotoxicity against HEK293T cells assessed as cell viability at 50 uM by CellTiter-Glo assay relative to control; details: human
[2] = in vitro; details: human, HEK293T cells
Description: Cytotoxicity against HEK293T cells assessed as cell viability at 12.5 uM by CellTiter-Glo assay relative to control

[3] = in vitro; details: human, HEK293T cells; remark: listed apart in the source
Description: Cytotoxicity against HEK293T cells assessed as cell viability at 25 uM by CellTiter-Glo assay relative to control

[4] = Drug uptake in HEK293T cells expressing luciferase reporter gene at 50 uM measured every 3 mins for 60 mins by luminescence assay relative to 50 uM luciferin; format: ADME, cell-based; details: human, hek-293t, 1 h
[5] = in vitro; details: human, HEK293T cells; remark: listed apart in the source
Description: Cytotoxicity against HEK293T cells assessed as cell viability at 6.3 uM by CellTiter-Glo assay relative to control

[6] = in vitro; details: human, HEK293T cells; remark: listed apart in the source
Description: Cytotoxicity against HEK293T cells assessed as cell viability at 1.9 uM by CellTiter-Glo assay relative to control

[7] = in vitro; details: human, HEK293T cells; remark: listed apart in the source
Description: Cytotoxicity against HEK293T cells assessed as cell viability at 16.7 uM by CellTiter-Glo assay relative to control

[8] = in vitro; details: human, HEK293T cells; remark: listed apart in the source
Description: Cytotoxicity against HEK293T cells assessed as cell viability at 5.6 uM by CellTiter-Glo assay relative to control

| Structure (SMILES) | viability at 50 µM [1] [%] | viability at 12.5 µM [2] [%] | viability at 25 µM [3] [%] | fold change (FC) [4] | viability at 6.3 µM [5] [%] | viability at 1.9 µM [6] [%] | viability at 16.7 µM [7] [%] | viability at 5.6 µM [8] [%] |
| --- | --- | --- | --- | --- | --- | --- | --- | --- |
| CC(=O)N[C@@H](CSSCCCOC(=O)Oc1ccc2nc(C3=N[C@@H](C(=O)O)CS3)sc2c1)C(=O)N[C@H]1CSSC[C@@H](C(=O)N[C@@H](CCCNC(=N)N)C(=O)N[C@@H](CCCNC(=N)N)C(=O)N[C@@H](CCCNC(=N)N)C(=O)N[C@@H](CCCNC(=N)N)C(=O)N[C@@H](CCCNC(=N)N)C(=O)N[C@@H](CCCNC(=N)N)C(=O)N[C@@H](CCCNC(=N)N)C(=O)N[C@@H](CCCNC(=N)N)C(N)=O)NC(=O)[C@H](Cc2c[nH]c3ccccc23)NC(=O)[C@@H]2CCCN2C(=O)[C@H](Cc2ccc(O)cc2)NC(=O)CNC(=O)[C@H](Cc2cnc[nH]2)NC(=O)[C@H](Cc2ccc(O)cc2)NC(=O)[C@H](CCCCN)NC(=O)[C@H](C)NC(=O)[C@H](C(C)C)NC1=O (Ac-C(X1)CVAKYHGYPWCRRRRRRRR-NH2; disulfide 2-12) | 71.7 | 104 | 99.7 | 61 | 108 | – | – | – |
| CC(=O)N[C@@H](CSSCCCOC(=O)Oc1ccc2nc(C3=N[C@@H](C(C)=O)CS3)sc2c1)C(=O)N[C@H]1CSSC[C@@H](C(=O)N[C@@H](CCCNC(=N)N)C(=O)N[C@@H](CCCNC(=N)N)C(=O)N[C@@H](CCCNC(=N)N)C(N)=O)NC(=O)[C@H](Cc2c[nH]c3ccccc23)NC(=O)[C@@H]2CCCN2C(=O)[C@H](Cc2ccc(O)cc2)NC(=O)CNC(=O)[C@H](Cc2cnc[nH]2)NC(=O)[C@H](Cc2ccc(O)cc2)NC(=O)[C@H](CCCCN)NC(=O)[C@H](C)NC(=O)[C@H](C(C)C)NC1=O (Ac-C(X2)CVAKYHGYPWCRRR-NH2; disulfide 2-12) | 126 | 112 | 115 | 22.8 | 105 | – | – | – |
| CC(C)C[C@H](NC(=O)[C@H](CO)NC(=O)CNC(=O)CCSSCCCOC(=O)Oc1ccc2nc(C3=N[C@@H](C(=O)O)CS3)sc2c1)C(=O)N[C@@H](CCCCN)C(=O)N[C@H](C(=O)N[C@@H](CCCNC(=N)N)C(=O)N[C@H](C(=O)N[C@@H](CC(C)C)C(=O)N[C@@H](CCCCN)C(=O)N[C@@H](CCCNC(=N)N)C(N)=O)C(C)C)[C@@H](C)O ([Mpa](X1)GSLKTRVLKR-NH2) | 87 | – | – | 11.2 | – | 101 | 93.1 | 100 |
| CC(C)C[C@H](NC(=O)[C@H](CCCCN)NC(=O)CCSSCCCOC(=O)Oc1ccc2nc(C3=N[C@@H](C(=O)O)CS3)sc2c1)C(=O)N[C@@H](Cc1ccccc1)C(=O)N[C@@H](CC(N)=O)C(=O)N[C@@H](CCCCN)C(=O)N[C@@H](CCC(N)=O)C(=O)N[C@@H](CCC(=O)O)C(=O)N[C@@H](Cc1c[nH]c2ccccc12)C(=O)N[C@H](C(=O)N[C@@H](CC(N)=O)C(N)=O)[C@@H](C)O ([Mpa](X1)KLFNKQEWTN-NH2) | 99.4 | – | – | 9.7 | – | 93 | 97.6 | 98.8 |
| CC(C)C[C@H](NC(=O)[C@H](CCCCN)NC(=O)[C@H](Cc1c[nH]c2ccccc12)NC(=O)[C@H](CCCNC(=N)N)NC(=O)[C@H](CCCCN)NC(=O)CCSSCCCOC(=O)Oc1ccc2nc(C3=N[C@@H](C(=O)O)CS3)sc2c1)C(=O)N[C@@H](Cc1ccccc1)C(=O)N[C@@H](CC(N)=O)C(=O)N[C@@H](CCCCN)C(=O)N[C@@H](CCC(N)=O)C(=O)N[C@@H](CCC(=O)O)C(N)=O ([Mpa](X1)KRWKLFNKQE-NH2) | 93.8 | – | – | 13.6 | – | 95.8 | 93.7 | 106 |
| CC(C)C[C@H](NC(=O)[C@H](CCCCN)NC(=O)[C@H](Cc1c[nH]c2ccccc12)NC(=O)[C@H](CCCNC(=N)N)NC(=O)[C@H](CCCCN)NC(=O)[C@H](CC(C)C)NC(=O)[C@@H](NC(=O)[C@H](CCCNC(=N)N)NC(=O)[C@@H](NC(=O)[C@H](CCCCN)NC(=O)CCSSCCCOC(=O)Oc1ccc2nc(C3=N[C@@H](C(=O)O)CS3)sc2c1)[C@@H](C)O)C(C)C)C(N)=O ([Mpa](X1)KTRVLKRWKL-NH2) | 80.1 | – | – | 30.7 | – | 77.7 | 80.5 | 85.3 |
| CC(C)C[C@H](NC(=O)CCSSCCCOC(=O)Oc1ccc2nc(C3=N[C@@H](C(=O)O)CS3)sc2c1)C(=O)N[C@@H](CCCCN)C(=O)N[C@@H](CCCNC(=N)N)C(=O)N[C@@H](Cc1c[nH]c2ccccc12)C(=O)N[C@@H](CCCCN)C(=O)N[C@@H](CC(C)C)C(=O)N[C@@H](Cc1ccccc1)C(=O)N[C@@H](CC(N)=O)C(=O)N[C@@H](CCCCN)C(=O)N[C@@H](CCC(N)=O)C(N)=O ([Mpa](X1)LKRWKLFNKQ-NH2) | 94 | – | – | 34.5 | – | 94.2 | 88.1 | 93.7 |
| CC(C)C[C@H](NC(=O)CCSSCCCOC(=O)Oc1ccc2nc(C3=N[C@@H](C(=O)O)CS3)sc2c1)C(=O)N[C@@H](CCCCN)C(=O)N[C@H](C(=O)N[C@@H](CCCNC(=N)N)C(=O)N[C@H](C(=O)N[C@@H](CC(C)C)C(=O)N[C@@H](CCCCN)C(=O)N[C@@H](CCCNC(=N)N)C(=O)N[C@@H](Cc1c[nH]c2ccccc12)C(=O)N[C@@H](CCCCN)C(N)=O)C(C)C)[C@@H](C)O ([Mpa](X1)LKTRVLKRWK-NH2) | 87.8 | – | – | 30.1 | – | 88.5 | 79.1 | 80 |
| CC(C)C[C@H](NC(=O)[C@H](CCCCN)NC(=O)[C@H](Cc1c[nH]c2ccccc12)NC(=O)[C@H](CCCNC(=N)N)NC(=O)[C@H](CCCCN)NC(=O)[C@H](CC(C)C)NC(=O)[C@@H](NC(=O)[C@H](CCCNC(=N)N)NC(=O)CCSSCCCOC(=O)Oc1ccc2nc(C3=N[C@@H](C(=O)O)CS3)sc2c1)C(C)C)C(=O)N[C@@H](Cc1ccccc1)C(=O)N[C@@H](CC(N)=O)C(N)=O ([Mpa](X1)RVLKRWKLFN-NH2) | 86 | – | – | 198.2 | – | 93.5 | 92.5 | 94.4 |
| CC(C)C[C@H](NC(=O)[C@H](CCCCN)NC(=O)[C@H](Cc1c[nH]c2ccccc12)NC(=O)[C@H](CCCNC(=N)N)NC(=O)CCSSCCCOC(=O)Oc1ccc2nc(C3=N[C@@H](C(=O)O)CS3)sc2c1)C(=O)N[C@@H](Cc1ccccc1)C(=O)N[C@@H](CC(N)=O)C(=O)N[C@@H](CCCCN)C(=O)N[C@@H](CCC(N)=O)C(=O)N[C@@H](CCC(=O)O)C(=O)N[C@@H](Cc1c[nH]c2ccccc12)C(N)=O ([Mpa](X1)RWKLFNKQEW-NH2) | 102 | – | – | 18.2 | – | 92.3 | 92.8 | 93.6 |
| CC(C)C[C@H](NC(=O)[C@H](CO)NC(=O)CCSSCCCOC(=O)Oc1ccc2nc(C3=N[C@@H](C(=O)O)CS3)sc2c1)C(=O)N[C@@H](CCCCN)C(=O)N[C@H](C(=O)N[C@@H](CCCNC(=N)N)C(=O)N[C@H](C(=O)N[C@@H](CC(C)C)C(=O)N[C@@H](CCCCN)C(=O)N[C@@H](CCCNC(=N)N)C(=O)N[C@@H](Cc1c[nH]c2ccccc12)C(N)=O)C(C)C)[C@@H](C)O ([Mpa](X1)SLKTRVLKRW-NH2) | 83.8 | – | – | 16.7 | – | 84 | 84.3 | 89.6 |
| CC(C)C[C@H](NC(=O)[C@H](CCCCN)NC(=O)[C@H](Cc1c[nH]c2ccccc12)NC(=O)[C@H](CCCNC(=N)N)NC(=O)[C@H](CCCCN)NC(=O)[C@H](CC(C)C)NC(=O)[C@@H](NC(=O)[C@H](CCCNC(=N)N)NC(=O)[C@@H](NC(=O)CCSSCCCOC(=O)Oc1ccc2nc(C3=N[C@@H](C(=O)O)CS3)sc2c1)[C@@H](C)O)C(C)C)C(=O)N[C@@H](Cc1ccccc1)C(N)=O ([Mpa](X1)TRVLKRWKLF-NH2) | 88.5 | – | – | 216.3 | – | 94.3 | 97.3 | 92.4 |
| CC(C)C[C@H](NC(=O)[C@H](CCCCN)NC(=O)[C@H](Cc1c[nH]c2ccccc12)NC(=O)[C@H](CCCNC(=N)N)NC(=O)[C@H](CCCCN)NC(=O)[C@H](CC(C)C)NC(=O)[C@@H](NC(=O)CCSSCCCOC(=O)Oc1ccc2nc(C3=N[C@@H](C(=O)O)CS3)sc2c1)C(C)C)C(=O)N[C@@H](Cc1ccccc1)C(=O)N[C@@H](CC(N)=O)C(=O)N[C@@H](CCCCN)C(N)=O ([Mpa](X1)VLKRWKLFNK-NH2) | 95.9 | – | – | 30.3 | – | 88.6 | 99.6 | 98.5 |
| CC(C)C[C@H](NC(=O)[C@H](CCCCN)NC(=O)[C@H](Cc1c[nH]c2ccccc12)NC(=O)CCSSCCCOC(=O)Oc1ccc2nc(C3=N[C@@H](C(=O)O)CS3)sc2c1)C(=O)N[C@@H](Cc1ccccc1)C(=O)N[C@@H](CC(N)=O)C(=O)N[C@@H](CCCCN)C(=O)N[C@@H](CCC(N)=O)C(=O)N[C@@H](CCC(=O)O)C(=O)N[C@@H](Cc1c[nH]c2ccccc12)C(=O)N[C@H](C(N)=O)[C@@H](C)O ([Mpa](X1)WKLFNKQEWT-NH2) | 102 | – | – | 14.7 | – | 100 | 104 | 99.6 |
